Experimental findings from publication PMC6627486, “Ipomoeassin F Binds Sec61α to Inhibit Protein Translocation” (Journal of the American Chemical Society, 2019) are described below.

SMILES strings stand for the structures.

For orientation: IC50 means the concentration at which inhibition is half-maximal.

One data set relates to MCF7. Description: MTT cytotoxicity assay, MCF7. Format: cell-based, human. The settings on record: Homo sapiens; MCF7, 72 h, MTT; read-out: Cytotoxicity (IC50). On the procedure: Two human breast cancer cell lines (MDA-MB-231 and MCF7) and one human breast non-tumorigenic epithelial cell line (MCF-10A) were maintained in a DMEM high glucose culture medium supplemented with 10% fetal bovine serum (FBS) and 2 mM L-glutamine. The cells were grown in a humidified atmosphere of 5% CO2 and 95% air at 37 °C . The culture medi um w as changed every 2–4 days depending on cell density. Cell cultures were passaged once a week using 0.125% trypsin-EDTA to detach the cells from culture flasks/dishes.
The human colorectal cancer cell line HCT116 was maintained in McCoy’s 5A (modified) medium supplemented with 10% fetal bovine serum (FBS). The human embryonic kidney (HEK293T and HEK293 FRT TRex) cell line was maintained in DMEM high glucose culture medium supplemented with 10% fetal bovine serum (FBS).
HepG2 cells were cultured in DMEM supplemented with 10% fetal bovine serum and 2 mM L-glutamine at 37°C under 5% CO2.
Viable cells were counted with a hemocytometer immediately before each experiment. Experiments were done in triplicate. First, 100 μL of MCF7 cells at the density of 50,000 cells/mL were seeded in a 96-well plate (5,000 cells/well), which was incubated at 37 °C and 5% CO2 atmosphere for 24 h. The compounds were dissolved in DMSO (dimethyl sulfoxide) to make drug stocks (10 mM). The stock solutions were diluted with the complete DMEM high glucose culture medium to make a series of gradient fresh working solutions right before each test. Subsequently, the cells were treated with 100 μL of the freshly made gradient working solution in a total volume of 200 μL/well for 72 h. After that, the media were discarded and 200 μL of the fresh complete medium containing 10% of MTT stock solution (5 mg/mL) was added to each well. The plate was then incubated at 37 °C and 5% CO2 for 3 h. Next, 180 μL of the medium was discarded from each well , and 180 μL of DMSO was added to each well to dissol ve formazan crystals. Absorbance of formazan was detected by a microplate reader (BioTek Synergy H1) at 570 nm with 650 nm as the reference wavelength. The percentage of viability compared to the negative control (DMSO-treated cells) was determined . GraphPad Prism 6 software was used to make a plot of %
In general terms: Tetrazolium assays rely on reduction of a dye to a coloured formazan, in cell work by metabolically active cells.

Another data set has as its system MDA-MB-231. The data set can be described thus: AlamarBlue cytotoxicity assay, MDA-MB-231. Format: cell-based, human. Particulars: Homo sapiens; MDA-MB-231, 72 h, AlamarBlue; read-out: Cytotoxicity (IC50). The protocol: (§1) AlamarBlue Cytotoxicity Assay
(§2) MDA-MB-231, MCF-10A and HCT116. Viable cells were counted with a hemocytometer immediately before each experiment . Experiments were done in triplicate. First, 100 μL of MDA-MB-231 cells or MCF-10A cells at the density of 50,000 cells/mL was seeded in a 96-well plate (5,000 cells/well) and then incubated at 37 °C and 5% CO2 for 24 h. The compounds were dissolved in DMSO (dimethyl sulfoxide) to make drug stocks (10 mM). The stock solutions were diluted with the complete DMEM high glucose culture medium to make a series of gradient fresh working solutions right before each test. Subsequently, the cells were treated with 100 μL of the freshly made gradient working solution in a total volume of 200 μL/well for 72 h. After that, the media were discarded and 200 μL of the fresh complete medium containing 10% of AlamarBlue (resazurin) stock solution was added to each well. The plate was then incubated at 37 °C and 5% CO2 for another 3 h. Emission of each well at 620 nm was detected by a microplate reader (BioTek Synergy H1) at excitation 580 nm. […]
(§3) Microplate Reader. The percentage of viability compared to the negative control (DMSO-treated cells) […]
(§4) was determined. […]
For orientation: Alamar Blue is a resazurin reagent that responds to reducing activity.

Data set [1] is described as follows: AlamarBlue cytotoxicity assay, MCF-10A. Particulars: human, 72 h. Format: cell-based, human. The protocol:
as §1, §2, §3, §4

The next data set concerns HepG2 cells. Description: Pulse-chase analysis of protein secretion in HepG2 cells. In kind it is cell-based, human. Particulars: HepG2; 100 nM Ipom-F or 42 nM mycolactone 13.5 h; 100 nM bortezomib 2 h. The protocol:
Pulse‐Chase Analysis of Protein Secretion in HepG2 Cells
The secretion assay was performed using a pulse–chase approach as described previously.20 HepG2 cells were treated with DMSO, 100 nM compound 8, 100 nM Ipom-F or […] mycolactone for 13.5 h before initiating the experiment, whereas pre-treatment with bortezomib 100 nM (Stratech) or 2.5 μg/ml brefeldin A were performed for 2 h and 1 h, respectively. Cells were starved in Met‐ and Cys‐free DMEM (Invitrogen) for 20 min at 37°C. Labeling was initiated by addition of fresh starvation medium containing […] [35S]Met and [35S]Cys protein labeling mix (Perkin Elmer; specific activity >1,000 Ci/mmol) for 15 min. After washing with PBS, cells were incubated in serum‐free DMEM supplemented with excess unlabeled L‐Met and L‐Cys (2 mM final concentration) for 2 h. The compounds were included throughout the starvation, pulse and chase. Secreted proteins in the media were recovered by precipitation with 13% trichloroacetic acid, washed in acetone and dissolved in 2x sample buffer. Cells were solubilized with Triton X‐100 lysis buffer (20 mM Tris, pH 7.5, 150 mM NaCl, 1% TX-100, 1 mM EDTA, 1 mM EGTA) supplemented with protease inhibitor cocktail and phenylmethylsulfonyl fluoride. Equal amounts

For another data set, the system named is HCT116. Description: cells. In kind it is cell-based. The settings on record: Homo sapiens, HCT-116; HCT116, 72 h, Alamar Blue, assayed separately; read-out: Cytotoxicity (IC50). The protocol:
as §1
as §2, with “nm. For HCT116 WT and mutant lines, cells were seeded at 1000 cells/ well in complete McCoys medium. Compounds were diluted from a DMSO stock into culture medium as described above. Cells were treated for 96 h, then viability measured with AlamarBlue, detected using the conditions described but with a BMG Fluostar Optima Microplate Reader. The percentage of viability compared to the negative control (DMSO-treated cells) was determined.” for “nm.”
HCT116 and HEK293T. Viable cells were counted using an automated cell counter (BioRad TC20) before each experiment. […] Emission of each well at 620 nm was detected by a microplate reader (Perkin Elmer EnSpire) at excitation 580 nm. The percentage of viability compared to the negative control (DMSO -treated cells) was determined. […]
Figure S1. […] (C) HCT116 colon carcinoma cells were treated with increasing concentrations of analogues 8, 14, 15, CT8, ipomoeassin F or carrier (0.1% DMSO) and cell viability was assessed at 72 h by the Alamar Blue assay (mean ± S.D., n = 4). […]

A further data set has as its system HCT-116 cells. The data set can be described thus: Metabolic labelling of nascent proteins in HCT116 cells. The settings on record: HCT-116, 1 μM, 35S labelling. In kind it is cell-based, human. The protocol:
Metabolic Labelling Assays in HCT116 Cells
HCT116 cells were counted using an automated cell counter (BioRad TC20) immediately prior to each experiment. 3 ml of HCT116 cells at a density of 0.166x10^6 cells/mL were seeded to 6-well plates (0.5x10^6 cells/well) and then incubated at 37 °C and 5% CO 2 for 24 h. The compounds were dissolved in DMSO to make drug stocks (10 mM). The stock solutions were diluted with DMEM high glucose culture medium lacking methionine and cysteine to make a fresh working solution immediately prior to each test. Cells were washed twice and 1ml of fresh DMEM lacking methionine and cysteine was added to each well.
Subsequently, the cells were treated with 250 µl of compound solutions in a total volume of 1 ,250 µl/well.
The plate was then incubated at 37 °C and 5% CO 2 for 30 min before 100 µCi 35S-labelled methionine/cysteine was added (Expre35s35s protein labelling mix). Plates were incubated for a further 30 min, then media collected and cells harvested by scraping after four washes in ice-cold PBS. Total protein was acquired by RIPA extraction from the cell pellet, cytoplasmic fraction was acquired by partial permeabilization of the outer cell membranes with 0.15% Digitonin followed by centrifugation, secreted proteins were acquired by TCA precipitation of the media. […]

For the molecule `C/C=C(\C)C(=O)O[C@@H]1[C@@H](O)[C@@H]2O[C@H]3[C@H](O[C@@H](CCCCC)CCCCCCC(=O)CCC(=O)OC[C@@H](O2)[C@H]1OC(=O)/C=C/c1ccc(OCc2cn(CCOCCOCCOCCNc4ccc([N+](=O)[O-])c5nonc45)nn2)cc1)O[C@H](C)[C@H](OC(C)=O)[C@@H]3O` [compound 11], the IC50 with MCF7 turned out to be 21.1 nM; in the data set with MDA-MB-231 it was 2.8 nM; in data set [1], 2 nM.
As for `CC(C)C[C@H](NC(=O)[C@H](Cc1ccccc1)NC(=O)c1cnccn1)B(O)O` [bortezomib, reference compound], the “secretory proteins in cell media” value in the data set with HepG2 cells is given as “had no effect”.
With `CCCCC[C@H]1CCCCCCC(=O)CCC(=O)OC[C@H]2O[C@@H](O[C@H]3[C@H](O1)O[C@H](C)[C@H](OC(C)=O)[C@@H]3O)[C@H](O)[C@@H](OC(=O)C(C)CC)[C@@H]2OC(=O)/C=C/c1ccccc1` (stereo partly drawn) [compound 15], the IC50 in the data set on HCT116 stood at 480 nM. For the same molecule, in the data set with HCT-116 cells, the “inhibition of production of secreted proteins compared with ipomoeassin F” value is reported as “less potently”.
As for `C/C=C(\C)C(=O)O[C@@H]1[C@@H](O)[C@@H]2O[C@H]3[C@H](O[C@@H](CCCCC)CCCCCCC(=O)CCC(=O)OC[C@@H](O2)[C@H]1OC(=O)/C=C/c1ccc(OCc2cn(-c4cc5ccc(O)cc5oc4=O)nn2)cc1)O[C@H](C)[C@H](OC(C)=O)[C@@H]3O` [compound 10], the IC50 in the data set on MCF7 was determined as 172 nM; in the data set with MDA-MB-231 it was 8.9 nM; in data set [1] it was 11.3 nM.
For `C#CCOc1ccc(/C=C/C(=O)O[C@@H]2[C@@H](O)[C@@H]3O[C@H]4[C@H](O[C@@H](CCCCC)CCCCCCC(=O)CCC(=O)OC[C@@H](O3)[C@H]2OC(=O)/C(C)=C/C)O[C@H](C)[C@H](OC(C)=O)[C@@H]4O)cc1` [compound 3], in that order: 22.2 nM, 6.3 nM and 9.6 nM.
